Source: patent US9695155B2, “Herbicidal substituted pyrimidinyloxy benzene compounds” (E. I. DU PONT DE NEMOURS AND COMPANY, priority 2013, dated 2017)

How the values were obtained:
Italian ryegrass [1] = test: Test A preemergence; type: in vivo, Lolium multiflorum
Outline: (§1)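 Visual 0–100 rating (100 = complete control) taken about 10 d post-treatment relative to untreated checks. Preemergence: directed soil spray on sown loam/sand pots. Postemergence: seedlings 2–10 cm, 1–2 leaf. Non-phytotoxic solvent formulation with surfactant.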

goosegrass = test: Test E preemergence; type: in vivo, Eleusine indica; conditions: for Goosegrass plant response rating: scale 0 to 100 (0 no effect, 100 complete control); for Plant response rating, Goosegrass: scale 0 to 100, 0 no effect, 100 complete control
Outline: (§2)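 Compound in a non-phytotoxic solvent mixture with surfactant was applied preemergence to seeds in silt loam soil, or postemergence to plants 2 to 18 cm tall grown in peat-based potting medium. Plants were kept in a greenhouse for 14 to 21 days, then rated visually against untreated controls on a 0 (no effect) to 100 (complete control) scale.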

barnyardgrass = test: Test E preemergence; type: in vivo, Echinochloa crus-galli; conditions: for Barnyardgrass plant response rating: scale 0 to 100 (0 no effect, 100 complete control); for Plant response rating, Barnyardgrass: scale 0 to 100, 0 no effect, 100 complete control
Outline: as §2

fall panicum = test: Test E preemergence; type: in vivo, Panicum dichotomiflorum; conditions: for Panicum, Fall plant response rating: scale 0 to 100 (0 no effect, 100 complete control); for Plant response rating, Panicum, Fall: scale 0 to 100, 0 no effect, 100 complete control
Outline: as §2

arrowleaf sida = test: Test E preemergence; type: in vivo, Sida rhombifolia; conditions: for Arrowleaf Sida plant response rating: scale 0 to 100 (0 no effect, 100 complete control); for Plant response rating, Arrowleaf Sida: scale 0 to 100, 0 no effect, 100 complete control
Outline: as §2

johnsongrass = test: Test E preemergence; type: in vivo, Sorghum halepense; conditions: for Johnsongrass plant response rating: scale 0 to 100 (0 no effect, 100 complete control); for Plant response rating, Johnsongrass: scale 0 to 100, 0 no effect, 100 complete control
Outline: as §2

sedge, umbrella = test: Test C flooded paddy test; type: in vivo, Cyperus difformis; conditions: Flood, scale 0 to 100 (0 no effect, 100 complete control), 13 to 15 days
Outline: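 Ratings were visual and made relative to untreated controls after 13 to 15 greenhouse days.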

galium = test: Test A postemergence; type: in vivo, Galium aparine; conditions: 0 to 100 scale where 0 is no effect and 100 is complete control
Outline: as §1

palmer pigweed = test: Test E preemergence; type: in vivo, Amaranthus palmeri; conditions: for Pigweed, Palmer plant response rating: scale 0 to 100 (0 no effect, 100 complete control); for Plant response rating, Pigweed, Palmer: scale 0 to 100, 0 no effect, 100 complete control
Outline: as §2

morningglory = test: Test E preemergence; type: in vivo, Ipomoea coccinea; conditions: for Morningglory plant response rating: scale 0 to 100 (0 no effect, 100 complete control); for Plant response rating, Morningglory: scale 0 to 100, 0 no effect, 100 complete control
Outline: as §2

soybean = test: Test E preemergence; type: in vivo, Glycine max; conditions: for Soybean plant response rating: scale 0 to 100 (0 no effect, 100 complete control); for Plant response rating, Soybean: scale 0 to 100, 0 no effect, 100 complete control
Outline: as §2

Italian ryegrass [2] = test: Test E preemergence; type: in vivo, Lolium multiflorum; conditions: for Ryegrass, Italian plant response rating: scale 0 to 100 (0 no effect, 100 complete control); for Plant response rating, Ryegrass, Italian: scale 0 to 100, 0 no effect, 100 complete control
Outline: as §2

dayflower = test: Test E preemergence; type: in vivo, Commelina virginica; conditions: for Dayflower, VA plant response rating: scale 0 to 100 (0 no effect, 100 complete control); for Plant response rating, Dayflower, VA: scale 0 to 100, 0 no effect, 100 complete control
Outline: as §2

ragweed = test: Test E preemergence; type: in vivo, Ambrosia elatior; conditions: for Ragweed plant response rating: scale 0 to 100 (0 no effect, 100 complete control); for Plant response rating, Ragweed: scale 0 to 100, 0 no effect, 100 complete control
Outline: as §2

SMILES: CCOc1cnn(-c2c(C#N)cccc2Oc2ncc(F)cn2)c1 [Compound 89]
- Plant response rating, Ryegrass, Italian (Italian ryegrass [1]; 125 g ai/ha, 0 to 100 scale where 0 is no effect and 100 is complete control): 0
- Ryegrass, Italian plant response rating (Italian ryegrass [1]; 500 g ai/ha, 0 to 100 scale, 0 no effect, 100 complete control, approx. 10 days): 10
- Goosegrass plant response rating (goosegrass; 31 g ai/ha): 0
- Goosegrass plant response rating (goosegrass; 62 g ai/ha): 0
- Plant response rating, Goosegrass (goosegrass; 125 g ai/ha): 5
- Plant response rating, Goosegrass (goosegrass; 250 g ai/ha): 50
- Barnyardgrass plant response rating (barnyardgrass; 31 g ai/ha, preemergence): 0
- Plant response rating, Barnyardgrass (barnyardgrass; Preemergence, 62 g ai/ha): 20
- Plant response rating, Barnyardgrass (barnyardgrass; preemergence, 125 g ai/ha): 70
- Plant response rating, Barnyardgrass (barnyardgrass; preemergence, 250 g ai/ha): 98
- Panicum, Fall plant response rating (fall panicum; 31 g ai/ha): 0
- Panicum, Fall plant response rating (fall panicum; 62 g ai/ha): 65
- Plant response rating, Panicum, Fall (fall panicum; 125 g ai/ha): 100
- Plant response rating, Panicum, Fall (fall panicum; 250 g ai/ha): 100
- Arrowleaf Sida plant response rating (arrowleaf sida; 31 g ai/ha, preemergence): 50
- Plant response rating, Arrowleaf Sida (arrowleaf sida; Preemergence, 62 g ai/ha): 75
- Plant response rating, Arrowleaf Sida (arrowleaf sida; preemergence, 125 g ai/ha): 100
- Plant response rating, Arrowleaf Sida (arrowleaf sida; preemergence, 250 g ai/ha): 100
- Johnsongrass plant response rating (johnsongrass; 31 g ai/ha): 0
- Johnsongrass plant response rating (johnsongrass; 62 g ai/ha): 10
- Plant response rating, Johnsongrass (johnsongrass; 125 g ai/ha): 50
- Plant response rating, Johnsongrass (johnsongrass; 250 g ai/ha): 100
- Plant response rating, Sedge, Umbrella (sedge, umbrella; 62 g ai/ha): 0
- Plant response rating, Sedge, Umbrella (sedge, umbrella; 125 g ai/ha): 50
- Plant response rating, Sedge, Umbrella (sedge, umbrella; 250 g ai/ha): 70
- Plant response rating, Galium (galium; 125 g ai/ha): 90
- Plant response rating, Galium (galium; 500 g ai/ha): 90
- Pigweed, Palmer plant response rating (palmer pigweed; 31 g ai/ha): 0
- Pigweed, Palmer plant response rating (palmer pigweed; 62 g ai/ha): 0
- Plant response rating, Pigweed, Palmer (palmer pigweed; 125 g ai/ha): 40
- Plant response rating, Pigweed, Palmer (palmer pigweed; 250 g ai/ha): 100
- Morningglory plant response rating (morningglory; 31 g ai/ha): 30
- Morningglory plant response rating (morningglory; 62 g ai/ha): 65
- Plant response rating, Morningglory (morningglory; 125 g ai/ha): 75
- Plant response rating, Morningglory (morningglory; 250 g ai/ha): 100
- Soybean plant response rating (soybean; 62 g ai/ha): 30
- Plant response rating, Soybean (soybean; 125 g ai/ha): 60
- Plant response rating, Soybean (soybean; 250 g ai/ha): 80
- Ryegrass, Italian plant response rating (Italian ryegrass [2]; 31 g ai/ha): 0
- Ryegrass, Italian plant response rating (Italian ryegrass [2]; 62 g ai/ha): 0
- Plant response rating, Ryegrass, Italian (Italian ryegrass [2]; 125 g ai/ha): 0
- Plant response rating, Ryegrass, Italian (Italian ryegrass [2]; 250 g ai/ha): 0
- Dayflower, VA plant response rating (dayflower; 31 g ai/ha): 0
- Dayflower, VA plant response rating (dayflower; 62 g ai/ha): 60
- Plant response rating, Dayflower, VA (dayflower; 125 g ai/ha): 80
- Plant response rating, Dayflower, VA (dayflower; 250 g ai/ha): 98
- Ragweed plant response rating (ragweed; 31 g ai/ha): 65
- Ragweed plant response rating (ragweed; 62 g ai/ha): 80
- Plant response rating, Ragweed (ragweed; 125 g ai/ha): 80
- Plant response rating, Ragweed (ragweed; 250 g ai/ha): 90

SMILES: FC(F)(F)c1cnn(-c2c(Cl)cccc2Oc2ncc(Cl)cn2)c1 [Compound 167]
- Goosegrass plant response rating (goosegrass; 31 g ai/ha): 60
- Goosegrass plant response rating (goosegrass; 62 g ai/ha): 75
- Plant response rating, Goosegrass (goosegrass; 125 g ai/ha): 98
- Barnyardgrass plant response rating (barnyardgrass; 16 g ai/ha, preemergence): 20
- Barnyardgrass plant response rating (barnyardgrass; 31 g ai/ha, preemergence): 20
- Barnyardgrass plant response rating (barnyardgrass; 62 g ai/ha, preemergence): 25
- Plant response rating, Barnyardgrass (barnyardgrass; preemergence, 125 g ai/ha): 75
- Panicum, Fall plant response rating (fall panicum; 31 g ai/ha): 65
- Panicum, Fall plant response rating (fall panicum; 62 g ai/ha): 100
- Plant response rating, Panicum, Fall (fall panicum; 125 g ai/ha): 100
- Arrowleaf Sida plant response rating (arrowleaf sida; 16 g ai/ha, preemergence): 65
- Arrowleaf Sida plant response rating (arrowleaf sida; 31 g ai/ha, preemergence): 65
- Arrowleaf Sida plant response rating (arrowleaf sida; 62 g ai/ha, preemergence): 100
- Plant response rating, Arrowleaf Sida (arrowleaf sida; preemergence, 125 g ai/ha): 100
- Johnsongrass plant response rating (johnsongrass; 31 g ai/ha): 10
- Johnsongrass plant response rating (johnsongrass; 62 g ai/ha): 30
- Plant response rating, Johnsongrass (johnsongrass; 125 g ai/ha): 70
- Plant response rating, Sedge, Umbrella (sedge, umbrella; 31 g ai/ha): 60
- Plant response rating, Sedge, Umbrella (sedge, umbrella; 62 g ai/ha): 70
- Plant response rating, Sedge, Umbrella (sedge, umbrella; 125 g ai/ha): 80
- Plant response rating, Sedge, Umbrella (sedge, umbrella; 250 g ai/ha): 85
- Pigweed, Palmer plant response rating (palmer pigweed; 31 g ai/ha): 0
- Pigweed, Palmer plant response rating (palmer pigweed; 62 g ai/ha): 98
- Plant response rating, Pigweed, Palmer (palmer pigweed; 125 g ai/ha): 100
- Morningglory plant response rating (morningglory; 31 g ai/ha): 25
- Morningglory plant response rating (morningglory; 62 g ai/ha): 40
- Plant response rating, Morningglory (morningglory; 125 g ai/ha): 65
- Soybean plant response rating (soybean; 31 g ai/ha): 0
- Soybean plant response rating (soybean; 62 g ai/ha): 20
- Plant response rating, Soybean (soybean; 125 g ai/ha): 50
- Ryegrass, Italian plant response rating (Italian ryegrass [2]; 31 g ai/ha): 0
- Ryegrass, Italian plant response rating (Italian ryegrass [2]; 62 g ai/ha): 10
- Plant response rating, Ryegrass, Italian (Italian ryegrass [2]; 125 g ai/ha): 40
- Dayflower, VA plant response rating (dayflower; 16 g ai/ha): 0
- Dayflower, VA plant response rating (dayflower; 31 g ai/ha): 5
- Dayflower, VA plant response rating (dayflower; 62 g ai/ha): 65
- Plant response rating, Dayflower, VA (dayflower; 125 g ai/ha): 100
- Ragweed plant response rating (ragweed; 31 g ai/ha): 15
- Ragweed plant response rating (ragweed; 62 g ai/ha): 35
- Plant response rating, Ragweed (ragweed; 125 g ai/ha): 35
